Test results from patent publication US20060165644A1, “Cosmetics” (Fancl Corporation, priority 2002, published 2006).

Tested on: Pseudomonas aeruginosa, Escherichia coli, Staphylococcus aureus
Test: Evaluation of reduction effect for inoculated bacteria
Format: cell-based
Conditions: about 10^7 bacteria per 1 g sample; 7 days at 25° C.; plate count
Protocol: Pseudomonas aeruginosa, Escherichia coli, Staphylococcus aureus of about 10^7 were inoculated to the samples shown in Table 3 per 1 g of the respective samples. The viable microbe cell number were measured by plate count method after cultivation for 7 days at 25° C.
The viable microbe cell number on seventh day was calculated as a residual rate by defining the number of inoculated microbes to 100%, and the antibacterial activity of the samples was evaluated by classifying the residual rate into standards of four ranks as follow.

Row | Structure (SMILES) | Antibacterial activity (residual rate of viable microbes)
1 | CCCC(O)CO (centres unmarked) [Sample 10, 1,2-pentanediol] | ◯ (Residual rate lower than 10%, not lower than 0.01%)
2 | CC(O)CCO (centres unmarked) [Sample 9, 1,3-butylene glycol] | ◯ (Residual rate lower than 10%, not lower than 0.01%)
